Results from patent US20150197492A1, “NOVEL INDENO[1,2-c]QUINOLIN-11-ONE DERIVATIVES, PREPARATION METHOD AND APPLICATION THEREOF” (National Defense Medical Center, priority 2014, published 2015).

Legend:
Experiment in all cases: cells
Format in all cases: cell-based
MCF7 = MCF7 (Breast Cancer), 10 μM, 48 hours
A549/ATCC = A549/ATCC (Non-Small Cell Lung Cancer), 10 μM, 48 hours
CAKI-1 = CAKI-1 (Renal Cancer), 10 μM, 48 hours
NCI-H522 = NCI-H522 (Non-Small Cell Lung Cancer), 10 μM, 48 hours
SNB-75 = SNB-75 (CNS Cancer), 10 μM, 48 hours
MDA-MB-468 = MDA-MB-468 (Breast Cancer), 10 μM, 48 hours
RXF 393 = RXF 393 (Renal Cancer), 10 μM, 48 hours
OVCAR-5 = OVCAR-5 (Ovarian Cancer), 10 μM, 48 hours
UO-31 = UO-31 (Renal Cancer), 10 μM, 48 hours
SK-MEL-5 = SK-MEL-5 (Melanoma), 10 μM, 48 hours
RPMI-8226 = RPMI-8226 (Leukemia), 10 μM, 48 hours
HCC-2998 = HCC-2998 (Colon Cancer), 10 μM, 48 hours
786-0 = 786-0 (Renal Cancer), 10 μM, 48 hours
OVCAR-8 = OVCAR-8 (Ovarian Cancer), 10 μM, 48 hours
NCI-H226 = NCI-H226 (Non-Small Cell Lung Cancer), 10 μM, 48 hours
MDA-MB-435 = MDA-MB-435 (Melanoma), 10 μM, 48 hours
HS 578T = HS 578T (Breast Cancer), 10 μM, 48 hours
NCI/ADR-RES = NCI/ADR-RES (Ovarian Cancer), 10 μM, 48 hours
UACC-257 = UACC-257 (Melanoma), 10 μM, 48 hours
CCRF-CEM = CCRF-CEM (Leukemia), 10 μM, 48 hours
MALME-3M = MALME-3M (Melanoma), 10 μM, 48 hours
COLO 205 = COLO 205 (Colon Cancer), 10 μM, 48 hours
SF-539 = SF-539 (CNS Cancer), 10 μM, 48 hours
UACC-62 = UACC-62 (Melanoma), 10 μM, 48 hours
SNB-19 = SNB-19 (CNS Cancer), 10 μM, 48 hours
MDA-MB-231/ATCC = MDA-MB-231/ATCC (Breast Cancer), 10 μM, 48 hours
HOP-62 = HOP-62 (Non-Small Cell Lung Cancer), 10 μM, 48 hours
DU-145 = DU-145 (Prostate Cancer), 10 μM, 48 hours
T-47D = T-47D (Breast Cancer), 10 μM, 48 hours

SMILES	growth percentage (MCF7)	growth percentage (A549/ATCC)	growth percentage (CAKI-1)	growth percentage (NCI-H522)	growth percentage (SNB-75)	growth percentage (MDA-MB-468)	growth percentage (RXF 393)	growth percentage (OVCAR-5)	growth percentage (UO-31)	growth percentage (SK-MEL-5)	growth percentage (RPMI-8226)	growth percentage (HCC-2998)	growth percentage (786-0)	growth percentage (OVCAR-8)	growth percentage (NCI-H226)	growth percentage (MDA-MB-435)	growth percentage (HS 578T)	growth percentage (NCI/ADR-RES)	growth percentage (UACC-257)	growth percentage (CCRF-CEM)	other results
COc1cccc(N2CCN(c3nc4ccccc4c4c3-c3ccc(Cl)cc3C4=O)CC2)c1 [SJ-20, 9-Chloro-6-(4-(3-methoxyphenyl)piperazin-1-yl)-11H-indeno[1,2-c]quinolin-11-one]	77.46%	101.22%	86.59%	79.75%	37.76%	101.04%	78.38%	98.22%	86.64%	96.87%	93.63%	105.79%	81.67%	83.98%	89.19%	100.75%	71.75%	92.82%	93.79%	93.78%	growth percentage (MALME-3M): 92.79%; growth percentage (COLO 205): 106.63%; growth percentage (SF-539): 83.97%; growth percentage (UACC-62): 86.44%; growth percentage (SNB-19): 105.27%; growth percentage (MDA-MB-231/ATCC): 79.81%; growth percentage (HOP-62): 90.22%; growth percentage (DU-145): 98.98%; growth percentage (T-47D): 86.68%
O=C1c2cc(Cl)ccc2-c2c(N3CCN(C(=O)N4CCCCC4)CC3)nc3ccccc3c21 [SJ-23]	97.24%	99.12%	90.50%	99.28%	80.84%	106.42%	107.22%	102.33%	82.74%	92.50%	104.31%	106.23%	105.05%	104.73%	96.06%	102.57%	102.06%	107.13%	104.23%	109.87%	growth percentage (MALME-3M): 102.62%; growth percentage (COLO 205): 98.52%; growth percentage (SF-539): 92.98%; growth percentage (UACC-62): 93.92%; growth percentage (SNB-19): 108.66%; growth percentage (MDA-MB-231/ATCC): 93.54%; growth percentage (HOP-62): 96.39%; growth percentage (DU-145): 114.04%; growth percentage (T-47D): 95.99%
